Experimental findings from US5834452A, “1- or 6-hydroxylated steroids” (Roussel Uclaf, priority 1996, dated 1998) are described below.

Each structure is given as a SMILES string.

This test has as its target T1, Human mineralocorticoid receptor (HMR) (Homo sapiens, UniProt P08235).
T1 construct: made in house; host or cells: SF9 insect cells (baculovirus), lysate supernatant
T1 sequence (P08235 1-984): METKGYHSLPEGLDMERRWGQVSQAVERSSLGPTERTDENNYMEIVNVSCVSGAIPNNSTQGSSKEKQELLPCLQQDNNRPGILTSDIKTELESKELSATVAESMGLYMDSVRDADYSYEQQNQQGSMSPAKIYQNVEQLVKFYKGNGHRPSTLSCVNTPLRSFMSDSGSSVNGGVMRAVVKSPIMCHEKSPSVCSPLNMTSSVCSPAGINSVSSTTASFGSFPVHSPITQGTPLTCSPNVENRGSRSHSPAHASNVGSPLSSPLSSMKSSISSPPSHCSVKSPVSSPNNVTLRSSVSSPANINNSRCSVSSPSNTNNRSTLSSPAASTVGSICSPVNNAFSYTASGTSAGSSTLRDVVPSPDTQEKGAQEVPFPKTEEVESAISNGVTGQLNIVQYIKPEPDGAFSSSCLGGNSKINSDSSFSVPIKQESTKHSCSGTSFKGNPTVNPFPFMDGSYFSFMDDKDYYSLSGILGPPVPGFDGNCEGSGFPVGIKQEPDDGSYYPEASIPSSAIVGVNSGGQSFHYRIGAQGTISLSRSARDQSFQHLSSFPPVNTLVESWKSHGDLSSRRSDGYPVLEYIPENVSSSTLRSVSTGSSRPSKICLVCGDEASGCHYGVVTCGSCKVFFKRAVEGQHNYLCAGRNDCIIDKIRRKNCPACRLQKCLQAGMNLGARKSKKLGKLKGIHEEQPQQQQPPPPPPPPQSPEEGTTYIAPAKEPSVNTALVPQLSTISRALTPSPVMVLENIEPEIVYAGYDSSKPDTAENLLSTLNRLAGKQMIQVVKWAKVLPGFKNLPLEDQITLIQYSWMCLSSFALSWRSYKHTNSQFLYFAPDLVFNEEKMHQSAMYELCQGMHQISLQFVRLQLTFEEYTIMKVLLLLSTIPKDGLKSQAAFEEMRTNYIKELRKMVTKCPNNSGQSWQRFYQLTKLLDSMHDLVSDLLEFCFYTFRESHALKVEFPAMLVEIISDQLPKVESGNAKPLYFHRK
The test can be described thus: Relative bond affinity (RBA), recombinant human mineralocorticoid receptor, charcoal dextran technique. In kind it is binding. Conditions: 24 h at 0° C.; Aldosterone = 100. An excerpt: The human recombinant receptor (HGR, HPR, HAR, HMR, HER) was used.
Human mineralocorticoid receptor (HMR):
A supernatant of SF9 cells containing the recombinant human mineralocorticoid receptor was obtained according to the process described above for the progestogen receptor using the cDNA fragment described by Baulieu et al (Proc. Natl. Acad. Sci., (1991), Vol. 88, p. 10681-10685) containing the region coding for the human mineralocorticoid receptor. The cells obtained were lysed in the lysis buffer (4). The supernatant was incubated at 0° C. for 24 hours with a constant concentration (T) of tritiated aldosterone in the presence of increasing concentrations of either unlabelled aldosterone (0 to 1000×10^-9 M), or the unlabelled product to be tested (1 to 25000×10^-9 M). The concentration of bound tritiated aldosterone (B) was then measured in each incubate using the charcoal dextran adsorption technique.
Calculation of the relative bond affinity (RBA).
The following two curves were drawn: the percentage of bound tritiated hormone B/BO as a function of the logarithm of the concentration of unlabelled reference hormone or as a function of the logarithm of the concentration of unlabelled test product. The straight line of the following equation was determined: […]
The relative bond affinity (RBA) of the test product was determined by the equation: […]

With `C[C@H](O)C(=O)[C@@]1(C)CC[C@H]2[C@@H]3C[C@@H](O)C4=CC(=O)CCC4=C3CC[C@@]21C` [Product B, [6β, 17β-(S)]-6-hydroxy-17-(2-hydroxy-1-oxopropyl)-17-methyl-Δ^4,9-estradiene-3-one], the “RBA, Human mineralocorticoid receptor” value is on record as “no or negligible RBA's”.
